Measured values from the NIST ThermoML archive (doi:10.1016/j.jct.2008.01.009).

Assay: molar heat capacity at saturation pressure

C1=Cc2ccccc2CC1 [1,2-dihydronaphthalene]
Settings | molar heat capacity [J/K/mol]
5.476 K, Crystal 3, Vacuum adiabatic calorimetry | 0.37
6.388 K, Crystal 3, Vacuum adiabatic calorimetry | 0.64
7.291 K, Crystal 3, Vacuum adiabatic calorimetry | 0.989
8.25 K, Crystal 3, Vacuum adiabatic calorimetry | 1.48
9.249 K, Crystal 3, Vacuum adiabatic calorimetry | 2.12
10.3 K, Crystal 3, Vacuum adiabatic calorimetry | 2.94
11.47 K, Crystal 3, Vacuum adiabatic calorimetry | 3.91
12.77 K, Crystal 3, Vacuum adiabatic calorimetry | 5.18
14.21 K, Crystal 3, Vacuum adiabatic calorimetry | 6.67
15.81 K, Crystal 3, Vacuum adiabatic calorimetry | 8.431
17.59 K, Crystal 3, Vacuum adiabatic calorimetry | 10.49
19.57 K, Crystal 3, Vacuum adiabatic calorimetry | 12.77
21.76 K, Crystal 3, Vacuum adiabatic calorimetry | 15.28
24.19 K, Crystal 3, Vacuum adiabatic calorimetry | 18
26.87 K, Crystal 3, Vacuum adiabatic calorimetry | 20.93
29.83 K, Crystal 3, Vacuum adiabatic calorimetry | 23.95
33.12 K, Crystal 3, Vacuum adiabatic calorimetry | 27.11
36.82 K, Crystal 3, Vacuum adiabatic calorimetry | 30.48
40.93 K, Crystal 3, Vacuum adiabatic calorimetry | 33.95
45.51 K, Crystal 3, Vacuum adiabatic calorimetry | 37.56
50.62 K, Crystal 3, Vacuum adiabatic calorimetry | 41.31
55.37 K, Crystal 3, Vacuum adiabatic calorimetry | 44.29
56.32 K, Crystal 3, Vacuum adiabatic calorimetry | 44.86
60.82 K, Crystal 3, Vacuum adiabatic calorimetry | 47.66
66.99 K, Crystal 3, Vacuum adiabatic calorimetry | 51.14
73.79 K, Crystal 3, Vacuum adiabatic calorimetry | 54.73
81.31 K, Crystal 3, Vacuum adiabatic calorimetry | 58.53
89.62 K, Crystal 3, Vacuum adiabatic calorimetry | 62.62
92.5 K, Crystal 3, Vacuum adiabatic calorimetry | 64
98.63 K, Crystal 3, Vacuum adiabatic calorimetry | 66.92
101.72 K, Crystal 3, Vacuum adiabatic calorimetry | 68.45
108.13 K, Crystal 3, Vacuum adiabatic calorimetry | 71.57
111.45 K, Crystal 3, Vacuum adiabatic calorimetry | 73.19
116.48 K, Crystal 3, Vacuum adiabatic calorimetry | 75.72
121.2 K, Crystal 3, Vacuum adiabatic calorimetry | 78.05
122.5 K, Crystal 3, Vacuum adiabatic calorimetry | 78.89
127.59 K, Crystal 3, Vacuum adiabatic calorimetry | 81.65
129.07 K, Crystal 3, Vacuum adiabatic calorimetry | 82.45
132.84 K, Crystal 3, Vacuum adiabatic calorimetry | 84.88
138.14 K, Crystal 3, Vacuum adiabatic calorimetry | 89.05
143.36 K, Crystal 3, Vacuum adiabatic calorimetry | 92.96
148.64 K, Crystal 2 | 97.43
153.85 K, Crystal 2 | 100.66
159.03 K, Crystal 2 | 103.99
164.19 K, Crystal 2 | 106.64
169.6 K, Crystal 2 | 109.63
171.24 K, Crystal 2 | 110.54
175.29 K, Crystal 2 | 112.56
178.78 K, Crystal 2 | 114.67
180.37 K, Crystal 2 | 115.57
180.88 K, Crystal 2 | 115.84
186.07 K, Crystal 2 | 118.77
186.76 K, Crystal 2 | 119.11
187.6 K, Crystal 2 | 120.08
192.71 K, Crystal 2 | 124.28
192.99 K, Crystal 2 | 123.59
197.84 K, Crystal 1, Small (less than 1 g) adiabatic calorimetry | 128.42
199.44 K, Crystal 1, Small (less than 1 g) adiabatic calorimetry | 129.23
202.96 K, Crystal 1, Small (less than 1 g) adiabatic calorimetry | 130.85
206.23 K, Crystal 1, Small (less than 1 g) adiabatic calorimetry | 132.6
208.77 K, Crystal 1, Small (less than 1 g) adiabatic calorimetry | 134.08
213.6 K, Crystal 1, Small (less than 1 g) adiabatic calorimetry | 137.01
215.96 K, Crystal 1, Small (less than 1 g) adiabatic calorimetry | 138.43
219.37 K, Crystal 1, Small (less than 1 g) adiabatic calorimetry | 140.75
230.97 K, Crystal 1, Small (less than 1 g) adiabatic calorimetry | 148.65
238.26 K, Crystal 1, Small (less than 1 g) adiabatic calorimetry | 153.96
243.92 K, Crystal 1, Small (less than 1 g) adiabatic calorimetry | 158.36
252.96 K, Crystal 1, Small (less than 1 g) adiabatic calorimetry | 166.39
255.1 K, Crystal 1, Small (less than 1 g) adiabatic calorimetry | 168.26

Liquid, Small (less than 1 g) adiabatic calorimetry
Settings | molar heat capacity [J/K/mol]
271.21 K | 199.33
272.18 K | 199.68
272.24 K | 199.7
280.33 K | 202.71
288.36 K | 205.77
291.65 K | 207.11
303.09 K | 211.59
318.19 K | 217.77
333.27 K | 224.04
348.76 K | 230.58
364.66 K | 237.34
380.18 K | 243.96
395.44 K | 250.46
